Entries after “also recorded” stand apart in the source; their conditions may differ.
Assays:
[1] = tested on: breast cancer cells with knocked down LHRH receptors (MDA-MB-231); test: alamar blue reduction after siRNA knock down of LHRH receptors; type: cell-based, human; settings: 5 μM; 24, 48 and 72 hours; LHRH receptor knock down
MDA-MB-231 cells = test: confocal fluorescence imaging of cellular uptake and cytotoxicity; type: cell-based, human; settings: 30 μM; 6 hours
[2] = histopathological and toxicity studies (body weight, clinical signs, H&E of organs); type: in vivo, athymic nude mice; settings: 10 mg/kg weekly for two weeks, IV; for toxicity / side effects (clinical signs, mortality, body weight): tumor-bearing mice
Method: (§1) Different groups of mice were injected intravenously with each drug through their tail veins. This was done after tumor growth for 14, 21 and 28 days. The mice were injected with 10 mg/kg per week, during the two-week periods in which the effects of drugs were investigated. Following each drug administration, the tumor sizes were monitored with calipers on a daily basis (every 24 hours). In this way, the possible tumor shrinkage, growth or elimination, were monitored on a daily basis. Furthermore, the health status of the mice was monitored on a daily basis. This was done by monitoring the mice for signs of weight loss or altered motor ability in their cages. At the end of study, the mice were euthanized, following the approved IACUC guidelines and procedures. Thereafter, tumor tissues were excised from all of the mice, including tissues from their major organs (kidneys, spleen, liver and lungs).
(§2) Following the in vivo tumor induction and growth experiments, tissues were extracted from the kidneys, spleen, lungs, liver and tumor regions. These were immediately fixed in 4% paraformaldehyde, dehydrated in a graded series of alcohol, and embedded in paraffin. Double doses of 10 mg/kg of PGS and PGS-[D-Lys6]LHRH were then administered (on a weekly basis for two weeks) to female athymic nude mice that were subcutaneously-induced with TNBC. In this way, qualitative toxicity was studied by considering differences in mortality, changes in body weight, clinical signs, gross observations and the histopathology of the lungs, kidneys and the liver at different stages of tumor development. This was done for the different drugs and cancer treatment durations. Daily observations and weight measurements were also used to check for possible animal reactions to the drugs, physiological changes, weight loss/gain, and the general well-being of the mice.
(§3) Hematoxylin and eosin (H and E) staining was also carried out. This was used for the identification of tumor necrosis and the examination of histologic changes that occurred in vital organs, following the administration of the drugs. Briefly, formalin-fixed, paraffin-embedded tissue/organs (tumor, kidneys, liver and lungs) samples (5 μm) were injected with PGS, [D-Lys6]LHRH-conjugated PGS, and DMSO. These were hydrated by passing them through decreasing concentrations (100, 90 &70%) of alcohol baths and water.
The hydrated tissue sections were then stained in hematoxylin solution for 5 mins. This was followed by rinsing with tap water for 3 minutes and differentiation in 1% acid alcohol for 5 minutes. Tap water was then used to rinse (three times) before dipping the sections in ammonia water for 2 minutes. This was followed by staining with eosin for 10 mins. The treated sliced samples were dehydrated in solution with increasing concentrations of alcohols followed by xylene. Finally, a few drops of Permount Mounting Medium were used to mount the resulting samples. The stained slides were then imaged with a 20× objective lens using a TS100F Nikon microscope (Nikon Instruments Inc., Melville, N.Y., USA) coupled with a DS-Fi3 C camera.

[3] = tested on: MDA-MB-231 human triple negative breast cancer subcutaneous tumor xenografts; test: subcutaneous xenograft tumor shrinkage study; type: in vivo, Athymic Nude-Foxn1nu strain mice; settings: for anti-tumor effect over early, mid and late stages: 14-day, 21-day and 28-day groups, 10 mg/kg IV
Method: In this section, cell culture, tumor induction and drug injection studies were carried out. First, 20 μl of 1×10^6 MDA-MB-231 human triple negative cancer cells were cultured in T75 tissue culture flasks (CELLTREAT, Pepperell, Mass., USA). This was carried out at 37° C. until 70% confluence was reached. The cells were grown under normal atmospheric pressure levels in a “L15^+ medium” that is typically made up of: L-15 medium (ATCC, Manassas, Va., USA), supplemented with 100 I.U./ml penicillin/100 µg/ml streptomycin and 10% FBS (ATCC, Manassas, Va., USA).
Forty 4-week old Athymic Nude-Foxn1nu strain mice with individual weights of ˜17 g each was purchase from Envigo (Somerset, N.J., USA). These animals were approved for use in the current work by the University of Massachusetts Medical School Institutional Animal Care and Use Committee (UMMS IACUC) with docket #A2630-17. All of the animals were maintained and used according to the approved UMMS IACUC procedure and guideline.
Subcutaneous tumor xenografts were induced by the injection of 5.0×10^6 of MDA-MB-231 human triple negative breast cancer cells (suspended in sterile saline) into the interscapular region (for a better angiogenic response). Tumor formation was carefully assessed by palpation. Tumor growth was then monitored daily with the digital calipers. The tumor volume was calculated using the following modified ellipsoidal formula: […]
where length was the longest axis of the tumor and width is the measurement at a right angle to the length.
The mice were randomly chosen in groups of three (for each drugs injection) into their respective treatment groups. These include groups of mice with early stage (14 days after tumor induction), mid stage (21 days after tumor induction) and late stage (28 days after tumor induction) tumors. The weights of the mice and their tumor sizes were monitored and measured (using digital calipers) on a daily basis. These precise volumes and measured weights of the mice were used to guide the administration of the drugs. They were also used to monitor toxicity and side effects associated with the drugs. For each of the study groups, 3 mice each were randomly assigned to injection of 10 mg/kg of the specific drug configuration (PGS, [D-Lys6]LHRH-conjugated PGS, and DMSO).
as §1

[4] = tested on: breast cancer tumor (LHRH receptors on triple negative breast tumor tissue); test: drug-tissue adhesion study with drug-coated AFM tips; type: binding, mice
Method: In an effort to understand the specificity in the targeting of triple negative breast cancer via the receptors that are over-expressed on the tumor, adhesion measurements were carried out on the control xenograft tissue samples at different stages of tumor development. Adhesion forces and interactions (between the different drug molecules and receptors on the surfaces of the tumor tissues at different stages of development) were explored in an effort to understand the interactions of the drugs with the tumor and non-tumor tissue.
Antigen retrieval was carried out on the fixed tissue. This involved exposing target antigens to receptors on a 10 μm thick microtome tissue slice. These sliced tissues were prepared for adhesion measurements in an Asylum MFP3D-Bio Atomic Force Microscope (AFM) (Asylum Research, Oxford Instrument, CA, USA). The AFM tips RESP-20 AFM tip (Bruker Santa Barbara, Calif., USA) were dip-coated with prodigiosin, or [D-Lys6]LHRH-conjugated prodigiosin using the techniques described in Obayemi et al. (J. Mech. Behav. Biomed. Mater., 68 (2017), pp. 276-286).
A simple AFM tip dip-coating technique (J. D. Obayemi et al. Materials Science and Engineering C. 66, (2016), 51-65, Hampp, E. et al. Res. 27 (22), 2891, Hutter, J. L. et al. Instrum. 64, 1868) (of the drugs) was used to coat the AFM tips at room-temperature (˜23° C.). In addition, a positive control of LHRH peptides was coated onto the AFM tips and used to determine the adhesion forces between the receptors on breast cancer tissue. All of the coated AFM tips were air-dried for about 6 h and kept in a desiccator overnight before the adhesion measurements.
The spring constants of the coated and uncoated AFM tips were measured experimentally using the thermal tune method (J. D. Obayemi, et al. Mater., 68 (2017), 276-286). This was done to obtain the actual spring constants that were used to calculate the pull-off forces from Hooke's law. The adhesion interactions were measured for the following configurations of coatings on the AFM tips and breast cancer tumor at different stages on the mice: […]

[5] = tested on: MDA-MB 231 induced xenograft breast tumor; test: histopathological (H&E) and TEM examination of treated tumor tissue; type: in vivo, mice; settings: for histopathology of tumor tissue (necrosis): after treatment, H&E
Method: as §2, §3
The hydrated tissue sections were then stained in hematoxylin solution for 5 mins. This was followed by rinsing with tap water for 3 minutes and differentiation in 1% acid alcohol for 5 minutes. Tap water was then used to rinse (three times) before dipping the sections in ammonia water for 2 minutes. This was followed by staining with eosin for 10 mins. The treated sliced samples were dehydrated in solution with increasing concentrations of alcohols followed by xylene. Finally, a few drops of Permount Mounting Medium were used to mount the resulting samples. […]

[6] = 21-day (mid stage) group, 10 mg/kg per week IV, two weeks
[7] = 28-day (late stage) group, 10 mg/kg per week IV, two weeks
[8] = day 14 (early stage) group, two IV injections (one per week) of 10 mg/kg
[9] = listed as [D-Lys6]LHRH-conjugated PGS

Method for MDA MB 231 cells: The alamar blue cell viability and cytotoxicity assay was used to study the MDA MB 231 cells lines in the log phase of growth. MDA MB 231 cells were harvested with trypsin-EDTA in the presence of Dulbecco Phosphate Buffer (DPBS). 10^4 cells/well were then seeded in 12-well plates in L15+ medium (L15 medium with cell medium supplement of FBS and penicillin/streptomycin). […] Cell viability was monitored using the alamar blue cell viability and cytotoxicity reagent (Thermo Fisher Scientific, Waltham, Mass., USA) at times of 0 h, 18 h, 24 h, 48 h and 72 h, following drug addition. At each time point, the culture medium was replaced with 1 ml of 10% alamar blue solution (in culture medium). The 12-well plates were then incubated at 37° C. for different durations. After each time point, 100 μl of the solution incubated with alamar blue solution (ABS) was transferred into triplicate wells of a black opaque 96-well plate (Thermo Fisher Scientific, Waltham, Mass., USA).
The fluorescence intensities of the cell medium supernatant incubated with ABS were measured at 544 nm excitation and 590 nm emission using a 1420 Victor3 multi-label plate reader (Perkin Elmer, Waltham, Mass., USA). The percentage of alamar blue reduction, the percentage difference in cell population between the treated and untreated cells, and the percentage of cell growth inhibition, were determined using a combination of the ABS and cell viability studies. In this way, the cytotoxicity of the respective conjugated drug molecules was obtained from equations 1 and 2 below.
where, FIsample=fluorescence intensity of the (treated or untreated) cells, FI10% AB=fluorescence intensity of 10% alamar blue reagent (negative control) and FI10% R=fluorescence intensity of 100% reduced alamar blue (positive control).
FItreated=fluorescence intensity of treated cells and FIcells=fluorescence intensity of untreated cells

CCCCCC1=C/C(=C/c2[nH]c(-c3ccc[nH]3)cc2OC)N=C1C [PGS, 4-methoxy-5-[(Z)-(5-methyl-4-pentyl-2H-pyrrol-2-ylidene)methyl]-1H,1′H-2,2′-bipyrrole, reference compound]
cell viability (percentage alamar blue reduction) in siRNA-treated cells [1]: no significant differences in cell viability
structural changes of actin filaments, vinculin and nuclei (confocal) (MDA-MB-231 cells): degradation, disorganization and depolymerization of the actin filaments and vinculin structures
histological / pathological changes in liver, lung and kidneys (H&E) [2]: no significant histological or significant pathological changes
resulting tumor volume [3, 6]: 90.11 mm^3
xenograft tumor size [3, 7]: 300.3 mm^3
final tumor sizes [3, 8]: ~29.42 mm^3
tumor outcome, early stage [3, 8]: some tumor shrinkage

LHRH-PGS: [D-Lys6]LHRH analog conjugated to prodigiosin at the epsilon (ε) amino side chain of the D-Lys6 moiety
cytotoxicity on co-incubation of LHRH (MDA MB 231 cells): decreased the cytoxicity
percentage alamar blue reduction (cell viability) (MDA MB 231 cells; 15 μM, 25 μM, 30 μM, 18, 24, 48 and 72 h post-treatment): increasing drug concentration had a greater effect on cell growth
percentage cell growth inhibition (MDA MB 231 cells; 15 μM, 25 μM, 30 μM, 72 h): effective at inhibiting the growth
cell viability (percentage alamar blue reduction) in siRNA-treated cells [1]: no significant differences in cell viability
structural changes of actin filaments, vinculin and nuclei (confocal) (MDA-MB-231 cells): more evident
histological / pathological changes in liver, lung and kidneys (H&E) ([2]; listed as [D-Lys6]LHRH-PGS): did not induce any degeneration in the primary organs
histological / pathological changes in liver, lung and kidneys (H&E) [2, 9]: no significant histological or significant pathological changes; also recorded: no evidence of liver cell hyaline degeneration and necrosis; also recorded: no pulmonary edema or hyperplasia; also recorded: glomerular volume of the kidneys was normal; also recorded: no chemotherapeutic drug-induced histological changes and tumor metastasis
toxicity / side effects (clinical signs, mortality, body weight) ([2]; listed as LHRH-prodigiosin): No clinical signs, differences in mortality, or changes in body weight
toxicity / side effects (clinical signs, mortality, body weight) ([2]; listed as [D-Lys6]LHRH-conjugated prodigiosin): minimal; also recorded: without any evidence of toxicity
adhesion force relative to unconjugated PGS, early stage ([4]; early stage breast tumor): nearly three times
adhesion force relative to unconjugated PGS, late stage ([4]; late stage breast tumor): four times
adhesion force relative to unconjugated PGS, mid stage ([4]; mid stage breast tumor): three times
anti-tumor effect over early, mid and late stages ([3]; listed as LHRH-prodigiosin, 10 mg/kg): decrease, shrink or eliminate tumors
anti-tumor effect over early, mid and late stages ([3]; listed as [D-Lys6]LHRH-conjugated PGS, 10 mg/kg): significant anti-tumor effects; also recorded: highest therapeutic activity
anti-tumor effect over early, mid and late stages ([3]; listed as [D-Lys6]LHRH-conjugated prodigiosin, 10 mg/kg): shrunk or eliminate the induced tumor
decrease in xenograft volume compared to unconjugated PGS [3, 6]: 95.6%
resulting tumor volume [3, 6]: 3.93 mm^3
tumor outcome, mid stage [3, 6]: significant shrinkage
percentage reduction in xenograft tumor volume compared to unconjugated PGS [3, 7]: 83.4%
xenograft tumor size [3, 7]: 49.9 mm^3
tumor outcome, late stage ([3]; 28-day (late stage) group, 10 mg/kg per week IV, two weeks, 10 mg/kg): significant tumor shrinkage
tumor outcome, late stage ([3]; 28-day (late stage) group, 10 mg/kg per week IV, two weeks, listed as [D-Lys6]LHRH-conjugated prodigiosin, 10 mg/kg): significant shrinkage
tumor outcome, early stage ([3]; day 14 (early stage) group, two IV injections (one per week) of 10 mg/kg, listed as LHRH-conjugated prodigiosin, 10 mg/kg): elimination of early stage breast tumors
tumor outcome, early stage ([3]; day 14 (early stage) group, two IV injections (one per week) of 10 mg/kg, listed as [D-Lys6]LHRH-conjugated PGS, 10 mg/kg): tumor elimination
tumor outcome, early stage ([3]; day 14 (early stage) group, two IV injections (one per week) of 10 mg/kg, listed as [D-Lys6]LHRH-conjugated prodigiosin, 10 mg/kg): eliminated the tumors
structural changes of tumor cells/tissue (TEM) ([5]; 21-day and 28-day treatment groups): greater structural changes
histopathology of tumor tissue (necrosis) [5]: exhibited disorder and different sizes
histopathology of tumor tissue (necrosis) [5, 9]: higher levels of necrosis in the tumors
